Legend:
Assay in all cases: NCI human tumor cell line panel growth inhibition
Format in all cases: cell-based
[1] = system: NCI-H226 lung cancer cells
A-498 renal cancer cells = system: A-498 renal cancer cells
[2] = system: NCI-H322M lung cancer cells
HOP-62 lung cancer cells = system: HOP-62 lung cancer cells
DLD-1 colon cancer cells = system: DLD-1 colon cancer cells
[3] = system: HCT-15 colon cancer cells
KM12 colon cancer cells = system: KM12 colon cancer cells
Excerpt: (§1) The cytotoxic activity of the present polythiophene compounds have been measured utilizing three different assays or screens. The first screen measures the cytotoxicity against a panel of sixty different human tumor cell lines. This assay provides data regarding the general cytotoxicity of an individual compound. In particular this type of assay is useful in identifying compounds which have enhanced cytotoxic activity against slow growing tumors as compared to faster growing tumor cells such as leukemia tumor cell lines. The identification of such compounds is critical since previously identified antitumor agents have low cytotoxic activity against slower growing tumors. […] The specificity of a cytotoxic compound for tumor cell lines relative to normal cells is an important characteristic of an effective antitumor agent.
(§2) The length of a bar is indicative of differential cytotoxicity against a specific type of tumor cells or tumor panels.
(§3) The antitumor cytotoxicity of the thiophene compounds tested in the first two in vitro assays was measured by a microculture assay using either 3-(4,5-dimethylthiazol-2-yl)-2,5-diphenyltetrazolium bromide (MTT) or sulforhodamine B (SRB). [M. R. Boyd in "Principles and Practices of Oncology," V. T. DeVita, Jr., S. Hellman and S. A. Rosenberg (Eds.), Vol. 3, PPO Updates, Number 10, 1989.] This assay has an advantage over in vivo assay in that results are obtained within a week as opposed to several months. The assay was carried out in 96-well microtiter plates. The MTT assay is based on the production of a dark blue formazan product by dehydrogenase in the mitochondria of live tumor cells after exposure to drug for 6 days [M. C. Alley, D. A. Scudiero, A. Monks, M. L. Hursey, M. J. Czerwinski, D. L. Fine, B. J. Abbott, J. G. Mayo, R. H. Shoemaker and M. R. Boyd, Cancer Res., 48, 589, 1988.] Thus, only live cells are stained and can be measured at 570 nm. The SRB assay is based on the binding of the anionic group to the basic amino acid residues of cellular proteins after exposure of tumor cells to drug for 2 days [P. Skehan, R. Storeng, D. Scudiero, A. Monks, J. McMahon, D. Vistica, J. T. Warren, H. Bohesch, S. Kenney and M. R. Boyd, J. Nat. Cancer Inst., 82, 1107, 1990.] Thus, the total protein (viability) can be measured at 564 nm.

[4] = system: OVCAR-4 ovarian cancer cells
Excerpt: as §1, §2, §3

HOP-92 lung cancer cells = system: HOP-92 lung cancer cells
Excerpt: as §1, §2, §3

[5] = system: RXF-393 renal cancer cells
HOP-18 lung cancer cells = system: HOP-18 lung cancer cells
[6] = system: KM20L2 colon cancer cells
[7] = system: NCI-H460 lung cancer cells
[8] = system: SW-620 colon cancer cells
Procedure: (§4) The first screen measures the cytotoxicity against a panel of sixty different human tumor cell lines. This assay provides data regarding the general cytotoxicity of an individual compound.
as §2, §3

[9] = system: OVCAR-8 ovarian cancer cells
Procedure: as §4, §2, §3

[10] = system: SK-OV-3 ovarian cancer cells
SNB-19 CNS cancer cells = system: SNB-19 CNS cancer cells
[11] = system: COLO-205 colon cancer cells; settings: COLO-205, colon cancer
UACC-257 melanoma cells = system: UACC-257 melanoma cells
[12] = system: HCC-2998 colon cancer cells
[13] = system: IGROV-1 ovarian cancer cells
[14] = system: A549/ATCC lung cancer cells
HT29 colon cancer cells = system: HT29 colon cancer cells
[15] = system: OVCAR-3 ovarian cancer cells
[16] = system: LXPL-529 lung cancer cells
[17] = system: CAKI-1 renal cancer cells
[18] = system: OVCAR-5 ovarian cancer cells
[19] = system: HCT-116 colon cancer cells
TK-10 renal cancer cells = system: TK-10 renal cancer cells
UACC-62 melanoma cells = system: UACC-62 melanoma cells
SF-295 CNS cancer cells = settings: read-out: Log10 GI50 (converted)
SNB-75 CNS cancer cells = settings: Homo sapiens, read-out: Log10 GI50 (converted)
786-0 renal cancer cells = settings: read-out: Log10 GI50 (converted)
[20] = system: NCI-H522 lung cancer cells; settings: read-out: Log10 GI50 (converted)
XP-498 CNS cancer cells = settings: read-out: Log10 GI50 (converted)
Procedure: as §4, §2, §3

U251 CNS cancer cells = settings: Homo sapiens, U-251, read-out: Log10 GI50 (converted)
[21] = system: RXF-631 renal cancer cells; settings: Homo sapiens, read-out: Log10 GI50 (converted)
UO-31 renal cancer cells = settings: read-out: Log10 GI50 (converted)
[22] = Homo sapiens, read-out: Log10 GI50 (converted)

OCc1ccc(-c2ccc(CO)s2)s1 [drawing 33]
Log10 GI50 [1]: -7.60 M | Log10 GI50 (A-498 renal cancer cells): -7.71 M | Log10 GI50 [2]: -5.77 M | Log10 GI50 (HOP-62 lung cancer cells): -5.52 M | Log10 GI50 (DLD-1 colon cancer cells): -4.74 M | Log10 GI50 [3]: -4.19 M | Log10 GI50 (KM12 colon cancer cells): -4.35 M | Log10 GI50 [4]: -4.46 M | Log10 GI50 (HOP-92 lung cancer cells): -4.09 M | Log10 GI50 [5]: -7.05 M | Log10 GI50 (HOP-18 lung cancer cells): -5.51 M | Log10 GI50 [6]: -6.15 M | Log10 GI50 [7]: -6.29 M | Log10 GI50 [8]: -5.04 M | Log10 GI50 [9]: -5.23 M | Log10 GI50 [10]: -5.80 M | Log10 GI50 (SNB-19 CNS cancer cells): -4.72 M | Log10 GI50 [11]: -6.22 M | Log10 GI50 (UACC-257 melanoma cells): -6.00 M | Log10 GI50 [12]: -6.40 M | Log10 GI50 [13]: -6.57 M | Log10 GI50 [14]: -5.91 M | Log10 GI50 (HT29 colon cancer cells): -5.04 M | Log10 GI50 ([15]; OVCAR-3, ovarian cancer): -5.70 M | Log10 GI50 [16]: -6.33 M | Log10 GI50 ([17]; CAKI-1, renal cancer): -6.63 M | Log10 GI50 [18]: -6.06 M | Log10 GI50 [19]: -5.27 M | Log10 GI50 (TK-10 renal cancer cells): -6.29 M | Log10 GI50 (UACC-62 melanoma cells): -6.36 M

OCc1ccc(-c2cccs2)s1
GI50 [1, 22]: 0.316 µM | GI50 (SF-295 CNS cancer cells): 38 µM | GI50 (SNB-75 CNS cancer cells): 0.389 µM | GI50 [2, 22]: 30.2 µM | GI50 (HOP-62 lung cancer cells; [22]): 9.77 µM | GI50 (DLD-1 colon cancer cells; [22]): 0.316 µM | GI50 [3, 22]: 35.5 µM | GI50 [5, 22]: 57.5 µM | GI50 (HOP-18 lung cancer cells; [22]): 10.5 µM | GI50 (786-0 renal cancer cells): 32.4 µM | GI50 [20]: 95.5 µM | GI50 ([6]; Homo sapiens, KM-20L2, read-out: Log10 GI50 (converted)): 1.58 µM | GI50 [7, 22]: 1.35 µM | GI50 [8, 22]: 4.68 µM | GI50 [9, 22]: 52.5 µM | GI50 (XP-498 CNS cancer cells): 3.72 µM | GI50 (U251 CNS cancer cells): 0.457 µM | GI50 [11, 22]: 3.63 µM | GI50 (UACC-257 melanoma cells; [22]): 0.933 µM | GI50 [14, 22]: 8.91 µM | GI50 (HT29 colon cancer cells; Homo sapiens, HT-29, read-out: Log10 GI50 (converted)): 8.51 µM | GI50 ([15]; Homo sapiens, OVCAR-3, read-out: Log10 GI50 (converted)): 2.34 µM | GI50 [16, 22]: 0.288 µM | GI50 ([17]; Homo sapiens, CAKI-1, read-out: Log10 GI50 (converted)): 0.224 µM | GI50 [21]: 0.813 µM | GI50 (UO-31 renal cancer cells): 38.9 µM | GI50 [18, 22]: 12.9 µM | GI50 [19, 22]: 4.57 µM | GI50 (TK-10 renal cancer cells; [22]): 0.234 µM
